What was measured:
HGF/c-MET signaling = test: Western blot, HGF-stimulated signaling in KMS11, KMS21 and KMS34 cells; type: cell-based, human; conditions: 20 μM GTN057
Experimental: MM cells (4 × 10^5 cells/mL) were incubated with 0–20 μM GTN057 for 12 h. The cells were then co‐cultured with 0–50 ng/mL of hepatocyte growth factor (HGF) (PeproTech, London) or 0–20 ng/mL of fibroblast growth factor (FGF)‐2 (PeproTech) with 1 unit/mL of heparin in RPMI containing 4% dialyzed FCS (Gibco) for the KMS11 and KMS34 cells and 10% dialyzed FCS for the KMS21 cells for 15 min at RT (room temperature). A549 cells were co‐cultured with 0–50 ng/mL of epidermal growth factor (EGF) (PeproTech) in Eagle's MEM containing 4% dialyzed FCS for 15 min at RT. […]
The protein concentrations were measured using a BCA Protein Assay Kit (Thermo Fisher Scientific). […]
Antibodies against phospho‐STAT3 (Tyr705), phospho‐Akt (Ser473), p44/42 MAPK (Erk 1/2), phosphor‐p44/42 MAPK (Thr202/Tyr 204), and phospho‐c‐Met (Tyr1234/1235) (all from Cell Signaling Technology, Danvers, MA) or STAT3, Akt, c‐Met, and β‐actin (all from Santa Cruz Biotechnology, Santa Cruz, CA) or phospho‐c‐Met (Tyr1230/1234/1235) (Biosource, Camarillo, CA for KMS34 cells in Figure 3A) were each used at 1:1000 dilution. […] The Western blotting signals were detected by enhanced ECL chemiluminescence (Amersham). The signal intensity of each band was quantified densitometrically with ImageJ software (ver. 1.48, U.S. National Institutes of Health).

MUM24 cells = test: Combination treatment with bortezomib or lenalidomide, MTT assay; type: cell-based, human; conditions: GTN057 with bortezomib or lenalidomide
Experimental: FIGURE 1 GTN057 induced the cell death of MM cells in vitro. (A) The chemical structure of GTN057 and the putative degradation product, GTN054. (B) GTN057 induced the cell death of the MM cell lines. The cells were incubated with GTN057 for 48 h, and the number of viable cells was counted by trypan blue exclusion test. Bars: mean ± SD (n = 3). *p < 0.05 versus control. (C) Growth‐inhibitory effects of GTN057 on CD138‐positive cells obtained from MM patients' bone marrow. Cells were treated with GTN057. The viability was evaluated by an MTT assay. Bars: mean ± SD (n = 3). *p < 0.05 versus control. (D) Combination treatment of GTN057 with bortezomib (Btz) or lenalidomide (Len), two major standard myeloma drugs, in MUM24 cells. The viability was evaluated by an MTT assay. Bars: mean ± SD (n = 3). *p < 0.05 versus GTN057 alone. […]
For the 3‐[…] (MTT) assay (Roche Diagnostics), 6 × 10^4 cells/mL of CD138‐positive bone marrow cells were cultured in 96‐well plates in triplicate with various concentrations of GTN057 for 48 h. The cell viability was examined by MTT dye absorbance in accord with the manufacturer's manual. […]

[1] = Toxicity assessment in ICR mice; type: in vivo
Description: For the toxicity assessment of GTN057 in vivo, we intraperitoneally (i.p.)‐injected male 5‐week‐old ICR mice (CLEA, […]) dissolved in 1% Tween® 80 + 10% DMSO in saline on 2 consecutive days of every 3‐day period for 2 weeks. The mice were weighed every week. Peripheral blood was collected with a heparinized hematocrit tube (Terumo, Tokyo) from the tail vein of each mouse every week and was stained with Türk's solution (Merck). The numbers of leukocytes and neutrophils were counted using light microscopy.

[2] = tested on: bone marrow cells from mice; set-up: method as in PMID 28882484; conditions: cited from earlier work
[3] = tested on: CD138-positive cells obtained from MM patients' bone marrow; test: Growth inhibition of patient cells, MTT assay; type: cell-based; conditions: Homo sapiens, 48 h
Description: Mononuclear cells were obtained from the bone marrow aspirates of MM patients treated at Tokyo Saiseikai Central Hospital, by centrifugation with Lymphoprep™ (Axis‐Shield). The mononuclear cells were then labeled with CD138 MicroBeads from Miltenyi Biotec (Bergisch Gladbach). The labeled CD138‐positive cells were magnetically purified using MACS Columns (Miltenyi Biotec).
For the 3‐[…] (MTT) assay (Roche Diagnostics), 6 × 10^4 cells/mL of CD138‐positive bone marrow cells were cultured in 96‐well plates in triplicate with various concentrations of GTN057 for 48 h. The cell viability was examined by MTT dye absorbance in accord with the manufacturer's manual. We obtained the IC50 values by drawing approximate straight lines in semilogarithmic growth curves, using Microsoft Excel.

Question: For `COc1c(OC(C)=O)c2c(c(O)c1C(C)C)C(=O)CC1C(C)(C)CCC[C@]1(O)C2` (stereo partly drawn) [GTN057], which “Phosphorylation of ERK1/2, STAT3 and Akt1” value (HGF/c-MET signaling; KMS11, KMS21, KMS34 cells, 50 ng/mL HGF) is on record?
Answer: Its value is “diminished”.

Question: What about the “Phosphorylation at y1234 y1235 of c-MET” value (HGF/c-MET signaling; co-culture with HGF) of the same compound?
Answer: Its value is “abolished”.

Question: What about the “Effect of combination treatment” value (MUM24 cells) of the same compound?
Answer: The value was “additive anti‐myeloma effect”.

Question: And the “Neutropenia and systemic toxicity” value ([1]; 100 mg/kg, 2 days of each 3-day period over 2 weeks, mice)?
Answer: The value was “no significant neutropenia or systemic toxicity”.

Question: What about the “Body weight and leukocyte count” value ([1]; 40 or 100 mg/kg i.p., 2 consecutive days of each 3-day period for 2 weeks, ICR mice) of the same compound?
Answer: Its value is “neither a loss of body weight nor leukocytopenia”.

Question: What about the Maximal tolerated dose ([1]; i.p., 2 days of every 3-day period, mice) of the same compound?
Answer: Its Maximal tolerated dose is at least 100 mg/kg.

Question: And the “Colony formation of bone marrow cells” value ([2]; bone marrow cells from mice)?
Answer: Its value is “did not inhibit the colony formation”.

Question: What about the “Hematological toxicity in vitro” value ([2]; colony assay) of the same compound?
Answer: The value was “negligible hematological toxicity”.

Question: What about the IC50 ([3]; Patient 1 CD138+ cells) of the same compound?
Answer: The IC50 was 12.1 µM.

Question: What about the IC50 ([3]; Patient 2 CD138+ cells) of the same compound?
Answer: Its IC50 is 16.3 µM.

Question: What about the IC50 ([3]; Patient 3 CD138+ cells) of the same compound?
Answer: Its IC50 is 26.3 µM.

Question: What about the IC50 ([3]; Patient 4 CD138+ cells) of the same compound?
Answer: The IC50 was 18.7 µM.

Reference: publication PMC10166914, “GTN057, a komaroviquinone derivative, induced myeloma cells' death in vivo and inhibited c‐MET tyrosine kinase” (Cancer Medicine, 2023)
